Results reported in ChEMBL document CHEMBL4808216, “Gut-Restricted Selective Cyclooxygenase-2 (COX-2) Inhibitors for Chemoprevention of Colorectal Cancer” (J Med Chem, 2021).

Key:
[1] = biological target: Prostaglandin G/H synthase 1 (Homo sapiens, UniProt P23219); experiment: Inhibition of COX1 (unknown origin) expressed in HEK293 TRex cells assessed as reduction in PGE2 production using arachidonic acid as substrate preincubated for 60 mins followed by substrate addition for 1 hr in presence of 10% FBS by RapidFire High-Throughput Mass Spectrometry; assay type: ADME, cell-based, HEK293-T-REx
Sequence of Prostaglandin G/H synthase 1 (P23219 whole entry): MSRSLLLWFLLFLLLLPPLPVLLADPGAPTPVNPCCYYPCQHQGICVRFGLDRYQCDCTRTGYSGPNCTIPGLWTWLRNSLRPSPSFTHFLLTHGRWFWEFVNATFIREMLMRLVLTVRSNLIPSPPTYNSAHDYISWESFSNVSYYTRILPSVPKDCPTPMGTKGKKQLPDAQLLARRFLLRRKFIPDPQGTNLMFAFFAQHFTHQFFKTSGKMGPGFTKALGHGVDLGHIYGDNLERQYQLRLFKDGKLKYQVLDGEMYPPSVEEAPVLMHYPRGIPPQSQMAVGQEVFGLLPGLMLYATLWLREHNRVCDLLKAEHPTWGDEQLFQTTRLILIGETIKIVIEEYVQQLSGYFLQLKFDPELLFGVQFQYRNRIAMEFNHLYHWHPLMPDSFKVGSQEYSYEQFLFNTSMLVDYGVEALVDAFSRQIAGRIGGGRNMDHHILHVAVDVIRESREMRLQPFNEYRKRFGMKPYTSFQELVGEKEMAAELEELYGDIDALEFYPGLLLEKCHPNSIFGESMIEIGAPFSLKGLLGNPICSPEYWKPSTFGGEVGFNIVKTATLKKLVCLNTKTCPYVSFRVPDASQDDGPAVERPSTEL

[2] = Half life in mouse liver microsomes; assay type: ADME, Microsome
[3] = Half life in mouse hepatocytes; assay type: ADME, cell-based, Hepatocyte
[4] = Volume of distribution at steady state in C57BL/6J mouse at 2 mg/kg, iv measured after 0.08 to 24 hrs; assay type: ADME, organism-based; conditions: C57BL/6J, in vivo, time 0.08-24 hrs, read-out: Vdss
[5] = Tmax in C57BL/6J mouse at 10 mg/kg, po administered as cassette dose measured at 4 hrs by liquid chromatographic triple-quadrupole mass spectrometric method; assay type: ADME, organism-based; conditions: in vivo
[6] = biological target: T1, Prostaglandin G/H synthase 2 (Homo sapiens, UniProt P35354); experiment: Inhibition of human recombinant COX-2 using arachidonic acid as substrate preincubated for 60 mins followed by substrate addition for 2 secs by ADPH based fluorometric analysis
T1 sequence (P35354 whole entry): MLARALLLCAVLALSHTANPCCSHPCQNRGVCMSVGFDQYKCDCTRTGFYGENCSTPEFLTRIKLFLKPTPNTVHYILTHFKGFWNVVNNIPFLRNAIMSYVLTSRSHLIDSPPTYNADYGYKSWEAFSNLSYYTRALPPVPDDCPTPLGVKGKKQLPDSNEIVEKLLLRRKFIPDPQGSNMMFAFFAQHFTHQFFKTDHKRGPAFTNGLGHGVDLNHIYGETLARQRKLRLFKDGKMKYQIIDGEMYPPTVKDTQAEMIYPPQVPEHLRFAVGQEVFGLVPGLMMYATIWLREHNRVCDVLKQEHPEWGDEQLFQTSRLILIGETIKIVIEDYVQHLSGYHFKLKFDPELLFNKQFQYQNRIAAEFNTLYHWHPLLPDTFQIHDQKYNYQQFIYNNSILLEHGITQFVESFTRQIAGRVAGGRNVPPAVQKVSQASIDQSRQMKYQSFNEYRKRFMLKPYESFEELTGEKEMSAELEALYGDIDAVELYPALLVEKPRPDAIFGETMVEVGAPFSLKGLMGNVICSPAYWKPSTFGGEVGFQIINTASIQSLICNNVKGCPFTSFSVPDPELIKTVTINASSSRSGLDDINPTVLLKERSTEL

[7] = Protein binding in human plasma assessed as unbound fraction; assay type: ADME, cell-free
[8] = Protein binding in human colon assessed as unbound fraction; assay type: ADME, tissue-based
Mus musculus [9] = experiment: Antitumor activity in C57BL/6J mouse model of spontaneous GI-tract tumor Apc-min assessed as reduction in total ileum polyp area at 300 mg/kg, po administered as suspension for 10 to 12 weeks; assay type: functional; conditions: time 10-12 weeks, read-out: TGI
Mus musculus [10] = experiment: Antitumor activity in C57BL/6J mouse model of spontaneous GI-tract tumor Apc-min assessed as mouse survival at 30 mg/kg, po administered daily as suspension and measured at day 82 by Kaplan-Meier method; assay type: functional
[11] = Oral bioavailability in Sprague Dawley rat at 10 mg/kg measured up to 24 hrs by LC-MS analysis; assay type: ADME, organism-based; conditions: in vivo
[12] = Oral bioavailability in Cynomolgus monkey at 10 mg/kg measured up to 24 hrs by LC-MS analysis; assay type: ADME, organism-based, Macaca fascicularis; conditions: in vivo
Homo sapiens = species on record: Homo sapiens; experiment: Selectivity ratio of IC50 for COX1 in human whole blood assessed as reduction in calcium ionophore-stimulated TXB2 production to IC50 for COX2 in human whole blood assessed as reduction in LPS stimulated PGE2 production; assay type: tissue-based
[13] = biological target: T2, Prostaglandin G/H synthase 2 (Homo sapiens) (UniProt P35354)
T2 sequence (whole entry): T1 sequence (P35354 whole entry)
Description: Protein occupancy at human recombinant COX-2 assessed as dissociation half life

For `CCCOc1nc(OCC(C)(C)O)c(-c2ccc(S(C)(=O)=O)cc2)cc1CO`, the IC50 [1] was greater than 50000 nM, the half-life [2] was 19.6 min and the half-life [3] was 3 min. It also gave a Vd [4] of 3.05 L/kg, a Tmax [5] of 15 min and a Ki [6] of 114 nM. For the same compound, the fraction unbound [7] was 0.016, the fraction unbound [8] was 0.066 and the inhibition in vivo at 300 mg/kg (Mus musculus [9]) was 41.9%. The Survival (Mus musculus [10]) was greater than 82 days, the bioavailability [11] was 2.3% and the bioavailability [12] was 20%. The Ratio IC50 (Homo sapiens) was 80 and the T1/2 [13] was 534 min.
